What was measured:
[1] = biological target: T1, Type-1 angiotensin II receptor (Homo sapiens) (UniProt P30556); assay: Time to maximal effect against human Angiotensin II receptor type 1
T1 sequence (whole entry): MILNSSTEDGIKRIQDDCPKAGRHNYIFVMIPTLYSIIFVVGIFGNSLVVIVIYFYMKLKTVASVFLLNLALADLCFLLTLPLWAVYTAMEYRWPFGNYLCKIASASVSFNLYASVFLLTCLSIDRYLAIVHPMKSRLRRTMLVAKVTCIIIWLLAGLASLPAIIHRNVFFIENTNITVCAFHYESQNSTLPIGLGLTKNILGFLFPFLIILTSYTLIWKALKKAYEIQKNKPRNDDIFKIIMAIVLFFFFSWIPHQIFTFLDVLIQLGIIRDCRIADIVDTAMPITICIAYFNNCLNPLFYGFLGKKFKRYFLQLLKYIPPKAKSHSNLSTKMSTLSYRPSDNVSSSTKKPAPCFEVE

[2] = biological target: T1, Type-1 angiotensin II receptor (Homo sapiens); assay: Binding affinity for AT1 receptor
[3] = Percentage modification of drug adsorbed after administration to human; format: ADME
[4] = biological target: T1, Type-1 angiotensin II receptor (Homo sapiens)
Description: pKa value against human Angiotensin II receptor type 1

[5] = Oral bioavailability; format: ADME, organism-based; details: human, in vivo
[6] = Time required for elimination of 50% of the compound; format: ADME; details: human
[7] = biological target: T1, Type-1 angiotensin II receptor (Homo sapiens); assay: Time to maximal plasma concentration of the drug in human
[8] = Volume distribution was determined; format: ADME, organism-based; details: human, in vivo

Compound | Tmax [1] [h] | Affinity [2] [nM] | Modification of adsorbed drug [3] [%] | pKa [4] | bioavailability [5] [%] | half-life [6] [min] | Tmax [7] [h] | Vd [8] [L/kg] | VD [8] [L/kg]
CCOc1nc2cccc(C(=O)O)c2n1Cc1ccc(-c2ccccc2-c2nnn[nH]2)cc1 | 4 | 0.1 | 20 | 3.9 | 40 | 660 | – | – | –
CCCc1nc2c(C)cc(-c3nc4ccccc4n3C)cc2n1Cc1ccc(-c2ccccc2C(=O)O)cc1 | – | 1 | 16 | 4.5 | 58 | 1440 | 1 | 4.54 | –
CCCCC(=O)N(Cc1ccc(-c2ccccc2-c2nnn[nH]2)cc1)[C@H](C(=O)O)C(C)C | – | 1.7 | 9 | – | 25 | 366 | 4 | 0.22 | –
CCCCc1nc(Cl)c(CO)n1Cc1ccc(-c2ccccc2-c2nnn[nH]2)cc1 | – | 6.4 | – | 4.9 | – | – | 1 | – | –
CCCCc1nc(Cl)c(CO)n1Cc1ccc(-c2ccccc2C(=O)O)cc1 | – | 230 | – | – | – | – | – | – | –
CCc1nc2c(C)cc(C)nc2n1Cc1ccc(-c2ccccc2-c2nn[nH]n2)cc1 | – | 0.5 | – | – | – | – | – | – | –
Cc1nc(C)c2c(O)cc(=O)n(Cc3ccc(-c4ccccc4-c4nn[nH]n4)cc3)c2n1 | – | 0.4 | – | – | – | – | 1 | – | –
CCCCc1nc(Cl)c(C(=O)O)n1Cc1ccc(-c2ccccc2-c2nn[nH]n2)cc1 [CARBOXYLIC ACID METABOLITE] | – | 1.3 | – | 2.8 | – | 384 | 3 | – | –
Cc1nc(C)c2c(O)cc(=O)n(Cc3ccc(-c4ccccc4-c4nnn[nH]4)cc3)c2n1 [ENOLTASOSARTAN] | – | – | – | – | – | 2400 | – | – | –
CCCCc1ncc(/C=C(\Cc2cccs2)C(=O)O)n1Cc1ccc(C(=O)O)cc1 [EPROSARTAN] | – | 9.2 | 20 | 5 | 13 | 420 | 13 | 0.16 | –
CCCCC1=NC2(CCCC2)C(=O)N1Cc1ccc(-c2ccccc2-c2nnn[nH]2)cc1 [IRBESARTAN] | – | 1.3 | 20 | 4.7 | 70 | 1260 | 2.5 | 0.9 | –
CCCCc1nc(Cl)c(CO)n1Cc1ccc(-c2ccccc2-c2nn[nH]n2)cc1 [LOSARTAN] | – | – | 75 | – | – | 192 | – | – | 0.38
Cc1nc(C)c2c(n1)N(Cc1ccc(-c3ccccc3-c3nnn[nH]3)cc1)C(=O)CC2 [TASOSARTAN] | – | 1.2 | 2 | 5 | 60 | 900 | 0.5 | – | –

From ChEMBL document CHEMBL1140303, “Pharmacophore, drug metabolism, and pharmacokinetics models on non-peptide AT1, AT2, and AT1/AT2 angiotensin II receptor antagonists” (J Med Chem, 2005)
